pEC50: −log10 of the molar value.
Tests used:
[1] = target: Cannabinoid receptor 2 (Homo sapiens, UniProt P34972); test: (§1) cAMP Assay: CHO cells expressing human CB1 or CB2 receptors are seeded 17-24 hours prior to the experiment 50.000 cells per well in a black 96 well plate with flat clear bottom (Corning Costar #3904) in DMEM (Invitrogen No. 31331), 1xHT supplement, with 10% fetal calf serum and incubated at 5% CO2 and 37° C. in a humidified incubator. The growth medium was exchanged with Krebs Ringer Bicarbonate buffer with 1 mM IBMX and incubated at 30° C. for 30 min. Compounds were added to a final assay volume of 100 ul and incubated for 30 min at 30° C. Using the cAMP-Nano-TRF detection kit the assay (Roche Diagnostics) was stopped by the addition of 50 ul lysis reagent (Tris, NaCl, 1.5% Triton X100, 2.5% NP40, 10% NaN3) and 50 ul detection solutions (20 uM mAb Alexa700-cAMP 1:1, and 48 uM Ruthenium-2-AHA-cAMP) and shaken for 2 h at room temperature. The time-resolved energy transfer is measured by a TRF reader (Evotec Technologies GmbH), equipped with a ND:YAG laser as excitation source. The plate is measured twice with the excitation at 355 nm and at the emission with a delay of 100 ns and a gate of 100 ns, total exposure time 10 s at 730 (bandwidth 30 nm) or 645 nm (bandwidth 75 nm), respectively. The FRET signal is calculated as follows: FRET=T730-Alexa730-P (T645-B645) with P=Ru730-B730/Ru645-B645, where T730 is the test well measured at […], T645 is the test well measured at 645 nm, B730 and B645 are the buffer controls at 730 nm and 645 nm, respectively. cAMP content is determined from the function of a standard curve spanning from 10 uM to 0.13 nM cAMP. EC50 values were determined using Activity Base analysis (ID Business Solution, Limited). The EC50 values for a wide range of cannabinoid agonists generated from this assay were in agreement with the values published in the scientific literature.
Chain of Cannabinoid receptor 2 (P34972 whole entry): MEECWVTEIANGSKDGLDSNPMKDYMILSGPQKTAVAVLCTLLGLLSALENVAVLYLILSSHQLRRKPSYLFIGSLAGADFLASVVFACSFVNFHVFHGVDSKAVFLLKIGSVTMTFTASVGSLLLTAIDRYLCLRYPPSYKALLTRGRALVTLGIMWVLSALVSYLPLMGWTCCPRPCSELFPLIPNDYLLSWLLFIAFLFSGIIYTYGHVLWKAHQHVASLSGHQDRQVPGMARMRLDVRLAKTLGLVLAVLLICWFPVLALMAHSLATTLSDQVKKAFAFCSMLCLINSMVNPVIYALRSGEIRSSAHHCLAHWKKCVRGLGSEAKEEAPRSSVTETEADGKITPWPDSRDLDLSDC

[2] = target: Cannabinoid receptor 1 (Homo sapiens, UniProt P21554); test: as §1
Chain of Cannabinoid receptor 1 (P21554 whole entry): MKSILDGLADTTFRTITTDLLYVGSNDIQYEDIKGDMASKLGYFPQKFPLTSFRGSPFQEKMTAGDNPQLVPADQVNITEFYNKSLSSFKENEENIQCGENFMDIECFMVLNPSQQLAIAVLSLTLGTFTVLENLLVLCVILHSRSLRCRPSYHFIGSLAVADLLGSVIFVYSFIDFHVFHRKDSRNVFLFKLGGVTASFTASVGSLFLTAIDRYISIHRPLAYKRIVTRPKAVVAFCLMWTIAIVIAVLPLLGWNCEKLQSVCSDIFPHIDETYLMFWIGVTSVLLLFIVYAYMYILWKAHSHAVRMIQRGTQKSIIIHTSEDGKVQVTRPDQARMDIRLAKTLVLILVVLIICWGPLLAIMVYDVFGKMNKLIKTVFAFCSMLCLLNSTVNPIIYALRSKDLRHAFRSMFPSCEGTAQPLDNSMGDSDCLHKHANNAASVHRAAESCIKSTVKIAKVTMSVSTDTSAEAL

With `NC(=O)[C@@H]1CC(F)(F)CN1C(=O)c1cnc(C2CC2)c(OCC2CC2)n1` the pEC50 [1] was 7.63 and the pEC50 [2] was < 5.00.
`CC1(C)CCCN1C(=O)c1cnc(C2CC2)c(OCC2CC2)n1` was tested, and the pEC50 [1] was 7.95 and the pEC50 [2] was < 5.00.
For `CCN(C(=O)c1cnc(N2CC(F)(F)C2)c(OCC2CC2)n1)C(C)C`, the pEC50 [1] was 7.70 and the pEC50 [2] was < 5.00.

From ChEMBL document CHEMBL5725277, “Pyrazine derivatives as CB2 receptor agonists” (2016)
